Test results as given in ChEMBL document CHEMBL1141263, “Sesquiterpenoids and cytotoxic lignans from the bark of Libocedrus chevalieri” (J Nat Prod, 2007).

Tests used:
[1] = tested on: KB; test: Cytotoxicity against human KB cells by microculture tetrazolium assay; type: functional, cell-based
[2] = Inhibition of tubulin polymerization
[3] = tested on: L1210; test: Cytotoxicity against mouse L1210 cells by microculture tetrazolium assay; type: functional, cell-based

Row | Structure (SMILES) | IC50 [1] | IC50 [2] | IC50 [3]
1 | COc1cc([C@@H]2c3cc4c(c(OC)c3[C@H](O)[C@H]3COC(=O)[C@H]23)OCO4)cc(OC)c1OC | 0.011 µM | 5 µM | 
2 | COc1cc([C@@H]2c3cc4c(c(OC)c3[C@@H](O)[C@H]3COC(=O)[C@H]23)OCO4)cc(OC)c1OC | 0.045 µM | 9 µM | 82 µM
